# Measured values reported in US4130709A, “Pleuromutilin glycoside derivatives” (Eli Lilly and Company, priority 1977, dated 1978).
# Like-named read-outs stand apart in the source and are kept apart here.
# Columns and labels:
# [1] = toxicity (LD50) on intraperitoneal injection in mice; conditions: mouse, in vivo, ip
# Spiroplasma citri = assay: in vitro inhibition of Spiroplasma citri measured by a color reaction; assay type: cell-based; set-up: key to Activity (color reaction): Red (R) includes complete inhibition; red-orange (RO) indicates partial inhibition; yellow (Y) indicates no inhibition
# Pasteurella hemolytica = assay: in vitro tests against Pasteurella hemolytica; assay type: cell-based
# Treponema hyodysenteriae = assay: in vitro agar plate test against Treponema hyodysenteriae; conditions: four days anaerobic
# Clostridium perfringens = assay: microbe, parasite or virus in culture; assay type: cell-based; conditions: 24 h
# [2] = test system: Bacteroides fragilis 1936B; assay: standard agar-dilution test, anaerobic bacteria; assay type: cell-based
# Bacteroides vulgatis = assay: standard agar-dilution test, anaerobic bacteria; assay type: cell-based
# Peptococcus prevoti = assay: standard agar-dilution test, anaerobic bacteria; assay type: cell-based
# Pseudomonas sp. (fish) = assay: in vitro activity against Pseudomonas sp. (fish); assay type: cell-based
# From the text: P. multocida, for example, is a causative agent of respiratory infection in cattle, poultry and swine. P. hemolytica is a major cause of respiratory disease in cattle. The activity of representative compounds of this invention (R^2 =H in group tested) against P. multocida and the Pseudomonas sp. is summarized in Table VI.
# [3] = test system: Fusobacterium necrophorum; assay: standard agar-dilution test, anaerobic bacteria; assay type: cell-based
# [4] = test system: Pasteurella multocida (bovine); assay: in vitro activity against Pasteurella multocida (bovine); assay type: cell-based
# From the text: (§1) The activity of representative compounds of this invention (R^2 =H in group tested) against P. multocida and the Pseudomonas sp. is summarized in Table VI.
# [5] = test system: Pasteurella multocida (turkey); assay: in vitro activity against Pasteurella multocida (turkey); assay type: cell-based
# From the text: as §1
# [6] = test system: Staphylococcus aureus (H-Heatley) NRRL B-314; assay: in vitro turbidometric assay (Autoturb Microbiological Assay System) against Staphylococcus aureus; assay type: cell-based; conditions: nutrient broth pH 7, approximately 4 hours at 37° C., A-40104 factor A as standard
# How it was run: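 S. aureus H-Heatley NRRL B-314 grown in nutrient broth (pH 7), about 4 h at 37° C, with turbidity read on the Autoturb system. Compounds were dissolved in water and diluted to roughly 2.5–5.0 mcg activity/ml. Activity units were set against an A-40104 factor A standard curve (1.25–6.25 mcg/ml).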
# [7] = test system: Peptostreptococcus anaerobius; assay: standard agar-dilution test, anaerobic bacteria; assay type: cell-based; conditions: 24-hour incubation
# [8] = test system: Streptococcus pyrogenes C203; assay: in vivo antimicrobial activity, experimental infection in mice, Streptococcus pyrogenes C203; conditions: sc, two doses, infecting challenge 370 × LD50 (ip), read-out: ED50 × 2
# Protocol: (§2) Typical compounds of the present invention have shown in vivo antimicrobial activity against experimental bacterial infections. When two doses of these compounds were administered to mice in illustrative infections, the activity observed was measured as an ED50 value [effective dose in mg/kg to protect 50% of the test animals; see Warren Wick, et al., J. Bacteriol. 81, 233-235 (1961)].
# [9] = test system: Bacteroides thetaiotaomicron; assay: standard agar-dilution test, anaerobic bacteria; assay type: cell-based; conditions: 24-hour incubation
# Protocol: (§3) Table IV summarizes the activity of typical compounds of this invention, as determined by the standard agar-dilution test.
# (§4) *Endpoint read after 24-hour incubation
# Clostridium septicum = assay: standard agar-dilution test, anaerobic bacteria; assay type: cell-based; conditions: 24-hour incubation
# Protocol: as §3, §4
# Actinomyces israelii = assay: standard agar-dilution test, anaerobic bacteria; assay type: cell-based; conditions: 24-hour incubation
# Bacteroides corrodens = assay: standard agar-dilution test, anaerobic bacteria; assay type: cell-based; conditions: Eikenella corrodens
# Fusobacterium symbiosum = assay: standard agar-dilution test, anaerobic bacteria; assay type: cell-based
# Eubacterium aerofaciens = assay: standard agar-dilution test, anaerobic bacteria; assay type: cell-based; conditions: Collinsella aerofaciens
# [10] = test system: Peptococcus asaccharolyticus; assay: standard agar-dilution test, anaerobic bacteria; assay type: cell-based; conditions: Peptoniphilus asaccharolyticus, 24-hour incubation
# Bacteroides fragilis 111 = assay: standard agar-dilution test, anaerobic bacteria; assay type: cell-based
# [11] = test system: Streptococcus pneumoniae B1492; assay: in vivo antimicrobial activity, experimental infection in mice, Streptococcus pneumoniae B1492; conditions: sc, two doses, infecting challenge 340 × LD50 (ip), read-out: ED50 × 2
# Protocol: as §2
# [12] = test system: Bacteroides melaninogenicus 2736; assay: standard agar-dilution test, anaerobic bacteria; assay type: cell-based
# [13] = test system: Bacteroides melaninogenicus 1856/28; assay: standard agar-dilution test, anaerobic bacteria; assay type: cell-based; conditions: Prevotella intermedia
# [14] = test system: Peptostreptococcus intermedius; assay: standard agar-dilution test, anaerobic bacteria; assay type: cell-based
# [15] = test system: Streptococcus pneumoniae Park I; assay: in vivo antimicrobial activity, experimental infection in mice, Streptococcus pneumoniae Park I; conditions: sc, read-out: ED50 × 2
# Protocol: as §2
# Mycoplasma hyorhinis = assay: in vitro broth-dilution studies, mycoplasma; assay type: cell-based
# From the text: (§5) The minimal inhibitory concentrations (MIC's) of a number of typical compounds of the present invention (R^2 =H in group tested) against various mycoplasma species, as determined by in vitro broth-dilution studies, are summarized in Table V.
# Mycoplasma gallisepticum = assay: in vitro broth-dilution studies, mycoplasma; assay type: cell-based; conditions: Mycoplasmoides gallisepticum
# From the text: as §5
# Mycoplasma hyopneumoniae = assay: in vitro broth-dilution studies, mycoplasma; assay type: cell-based; conditions: Mesomycoplasma hyopneumoniae
# From the text: as §5
# Mycoplasma synoviae = assay: in vitro broth-dilution studies, mycoplasma; assay type: cell-based; conditions: Mycoplasmopsis synoviae
# From the text: as §5
# [16] = test system: Bacteroides fragilis 1877; assay: standard agar-dilution test, anaerobic bacteria; assay type: cell-based
# [17] = test system: Staphylococcus aureus 3055; assay: in vivo antimicrobial activity, experimental infection in mice, Staphylococcus aureus 3055; conditions: two doses, read-out: ED50 × 2
# Protocol: as §2
# [18] = intraperitoneal injection, mice
# [19] = Bacteroides fragilis 1936B, 24-hour incubation, read-out: MIC
# [20] = Bacteroides vulgatis, 24-hour incubation, read-out: MIC
# [21] = Peptococcus prevoti, 24-hour incubation, read-out: MIC
# [22] = 24-hour incubation, read-out: MIC
# [23] = Bacteroides corrodens, 24-hour incubation, read-out: MIC
# [24] = Fusobacterium symbiosum, 24-hour incubation, read-out: MIC
# [25] = Eubacterium aerofaciens, 24-hour incubation, read-out: MIC
# [26] = Bacteroides fragilis 111, 24-hour incubation, read-out: MIC
# [27] = Bacteroides melaninogenicus 2736, 24-hour incubation, read-out: MIC
# [28] = Bacteroides melaninogenicus 1856/28, 24-hour incubation, read-out: MIC
# [29] = Peptostreptococcus intermedius, 24-hour incubation, read-out: MIC
# [30] = Bacteroides fragilis 1877, 24-hour incubation, read-out: MIC
smiles,measurement,setting,value
CC[C@]1(C)C[C@@H](OC(=O)CS[C@@H]2OC[C@@H](O)[C@H](O)[C@H]2O)[C@]2(C)[C@H](C)CC[C@]3(CCC(=O)[C@H]32)[C@@H](C)[C@@H]1O,LD50,[1]; [18],> 1500 mg/kg
same,MIC,"Spiroplasma citri; Spiroplasma citri, in vitro, read-out: inhibits the growth of S. citri at levels as low as",≥ 0.01 µg/mL
same,MIC,Pasteurella hemolytica,10.4 µg/mL
same,inhibition of growth,Treponema hyodysenteriae; 0.5 mcg/ml agar concentration,inhibited growth
same,inhibition of growth,Treponema hyodysenteriae; 5.0 mcg/ml agar concentration,inhibited growth
same,inhibition of growth,Treponema hyodysenteriae; 50 mcg/ml agar concentration,inhibited growth
C=C[C@]1(C)C[C@@H](OC(=O)CS[C@@H]2OC[C@@H](O)[C@H](O)[C@H]2O)[C@]2(C)[C@H](C)CC[C@]3(CCC(=O)[C@H]32)[C@@H](C)[C@@H]1O [Compound 2],MIC,Clostridium perfringens,2 µg/mL
same,MIC,[2]; [19],1 µg/mL
same,LD50,[1],> 1500 mg/kg
same,MIC,Bacteroides vulgatis; [20],1 µg/mL
same,MIC,Peptococcus prevoti; [21],≤ 0.5 µg/mL
same,MIC,Pseudomonas sp. (fish),6.25 µg/mL
same,MIC,[3]; [22],≤ 0.5 µg/mL
same,MIC,[4],3.12 µg/mL
same,MIC,[5],6.25 µg/mL
same,Units of Activity,[6],995 to 1003 µg/mg
same,MIC,[7],≤ 0.5 µg/mL
same,ED50,[8],11.4 mg/kg
same,MIC,[9],1 µg/mL
same,MIC,Clostridium septicum,2 µg/mL
same,MIC,Actinomyces israelii,≤ 0.5 µg/mL
same,MIC,Bacteroides corrodens; [23],1 µg/mL
same,MIC,Fusobacterium symbiosum; [24],2 µg/mL
same,MIC,Eubacterium aerofaciens; [25],1 µg/mL
same,MIC,[10],≤ 0.5 µg/mL
same,Activity (color reaction),Spiroplasma citri; 0.01 ppm,"RO,RO"
same,Activity (color reaction),Spiroplasma citri; 0.05 ppm,"--,R"
same,Activity (color reaction),Spiroplasma citri; 0.1 ppm,"R,R"
same,Activity (color reaction),Spiroplasma citri; 1.0 ppm,"R,R"
same,MIC,Bacteroides fragilis 111; [26],1 µg/mL
same,ED50,[11],15.3 mg/kg
same,MIC,[12]; [27],1 µg/mL
same,MIC,[13]; [28],> 128 µg/mL
same,MIC,[14]; [29],≤ 0.5 µg/mL
same,ED50,[15],65 mg/kg
same,MIC,Mycoplasma hyorhinis,0.39 µg/mL
same,MIC,Mycoplasma gallisepticum,0.78 µg/mL
same,MIC,Mycoplasma hyopneumoniae,≤ 0.15 µg/mL
same,MIC,Mycoplasma synoviae,0.78 µg/mL
same,MIC,Pasteurella hemolytica,12.5 µg/mL
same,inhibition of growth,Treponema hyodysenteriae; 0.5 mcg/ml agar concentration,inhibited growth
same,inhibition of growth,Treponema hyodysenteriae; 5.0 mcg/ml agar concentration,inhibited growth
same,inhibition of growth,Treponema hyodysenteriae; 50 mcg/ml agar concentration,inhibited growth
same,MIC,[16]; [30],1 µg/mL
same,ED50,"[17]; Staphylococcus aureus, 3055, po, oral, infecting challenge 500 × LD50 (ip)",32.4 mg/kg
same,ED50,"[17]; Staphylococcus aureus, 3055, po, oral, infecting challenge 3400 × LD50 (ip)",44 mg/kg
same,ED50,"[17]; Staphylococcus aureus, 3055, sc, sc, infecting challenge 82 × LD50 (ip)",1.85 mg/kg
"CC[C@]1(C)C[C@@H](OC(=O)CO[C@H]2O[C@H](COC(C)=O)[C@@H](OC(C)=O)[C@H](OC(C)=O)C2=NO)[C@]2(C)[C@H](C)CC[C@]3(CCC(=O)[C@H]32)[C@@H](C)[C@@H]1O [Compound 8, 14-deoxy-14-[(2-deoxy-2-(hydroxyimino)-3,4,6-tri-O-acetyl-α-D-glucopyranosyl)oxyacetoxy]-19,20-dihydromutilin]",MIC,Clostridium perfringens,> 128 µg/mL
same,MIC,"[2]; Bacteroides fragilis, 1936B, 24 h",> 128 µg/mL
same,LD50,[1]; [18],> 300 mg/kg
same,MIC,"Bacteroides vulgatis; Bacteroides, 24 h",> 128 µg/mL
same,MIC,Peptococcus prevoti; 24 h,> 128 µg/mL
same,MIC,[3]; 24 h,> 128 µg/mL
same,MIC,[7],64 µg/mL
same,MIC,[9],> 128 µg/mL
same,MIC,Clostridium septicum,> 128 µg/mL
same,MIC,Actinomyces israelii,8 µg/mL
same,MIC,Bacteroides corrodens; 24 h,> 128 µg/mL
same,MIC,"Fusobacterium symbiosum; Fusobacterium, 24 h",> 128 µg/mL
same,MIC,Eubacterium aerofaciens; 24 h,> 128 µg/mL
same,MIC,[10],8 µg/mL
same,Activity (color reaction),Spiroplasma citri; 0.1 ppm,Y
same,Activity (color reaction),Spiroplasma citri; 1.0 ppm,R
same,MIC,"Bacteroides fragilis 111; Bacteroides fragilis, 111, 24 h",> 128 µg/mL
same,MIC,"[12]; 2736, 24 h",> 128 µg/mL
same,MIC,"[13]; 1856/28, 24 h",> 128 µg/mL
same,MIC,"[14]; Peptostreptococcus, 24 h",> 128 µg/mL
same,MIC,Mycoplasma hyorhinis,6.25 µg/mL
same,MIC,Mycoplasma gallisepticum,3.12 µg/mL
same,MIC,Mycoplasma synoviae,6.25 µg/mL
same,MIC,"[16]; Bacteroides fragilis, 1877, 24 h",> 128 µg/mL
"CC[C@]1(C)C[C@@H](OC(=O)CS[C@@H]2OC[C@@H](OC(C)=O)[C@H](OC(C)=O)[C@H]2OC(C)=O)[C@]2(C)[C@H](C)CC[C@]3(CCC(=O)[C@H]32)[C@@H](C)[C@@H]1O [Compound 6, 14-deoxy-14-[(2,3,4-tri-O-acetyl-β-D-xylopyranosyl)thioacetoxy]-19,20-dihydromutilin]",MIC,Clostridium perfringens,> 128 µg/mL
same,MIC,[2]; [19],8 µg/mL
same,MIC,Bacteroides vulgatis; [20],4 µg/mL
same,MIC,Peptococcus prevoti; [21],2 µg/mL
same,MIC,Pseudomonas sp. (fish),12.5 µg/mL
same,MIC,[3]; [22],4 µg/mL
same,MIC,[4],< 50 µg/mL
same,MIC,[5],< 50 µg/mL
same,Units of Activity,[6],746 to 883 µg/mg
same,MIC,[7],≤ 0.5 µg/mL
same,MIC,[9],8 µg/mL
same,MIC,Clostridium septicum,1 µg/mL
same,MIC,Actinomyces israelii,2 µg/mL
same,MIC,Bacteroides corrodens; [23],4 µg/mL
same,MIC,Fusobacterium symbiosum; [24],4 µg/mL
same,MIC,Eubacterium aerofaciens; [25],16 µg/mL
same,MIC,[10],4 µg/mL
same,Activity (color reaction),Spiroplasma citri; 0.01 ppm,RO
same,Activity (color reaction),Spiroplasma citri; 0.05 ppm,R
same,Activity (color reaction),Spiroplasma citri; 0.1 ppm,R
same,Activity (color reaction),Spiroplasma citri; 1.0 ppm,R
same,MIC,Bacteroides fragilis 111; [26],2 µg/mL
same,MIC,[12]; [27],4 µg/mL
same,MIC,[13]; [28],2 µg/mL
same,MIC,[14]; [29],4 µg/mL
same,MIC,Mycoplasma hyorhinis,0.39 µg/mL
same,MIC,Mycoplasma gallisepticum,0.78 µg/mL
same,MIC,Mycoplasma hyopneumoniae,≤ 0.15 µg/mL
same,MIC,Mycoplasma synoviae,0.78 µg/mL
same,MIC,[16]; [30],2 µg/mL
